Test results reported in EP2230235A1, “Botryosphaerones, novel depsidones and their use as medicaments” (Leibniz-Institut für Naturstoff-Forschung und …, priority 2009, dated 2010).
Converted amounts (≈) assume the structure as drawn. Where two headings read alike, the source gives them in different places.

Legend:
Format in all cases: cell-based
[1] = tested on: Bacillus subtilis; experiment: MIC determination / antibacterial activity, agar diffusion method; settings: for antimicrobial efficacy / antibacterial activity: B. subtilis, result in words
Source text: (§1) Antifungal activities were studied qualitatively by agar diffusion tests according to the literature (Stuttgart, D. A. V., European Pharmacopoeia, 3rd ed.1997, 13, 118; Afonin, S.; Glaser, R. W.; Berditchevskaia, M.; Wadhwani, P.; Guhrs, K. H.; Mollmann, U.; Perner, A.; Ulrich, A. S. Chembiochem. 2003, 4, (11), 1151-1163; Standards, N. C. f. C. L., Reference Method for Broth Dilution Susceptibility Testing of Filamentous Fungi; Approved Standard. M38-A, Wayne, PA, USA, NCCls 2002, 22) and quantitatively by determination of minimal inhibitory concentration (MIC) according to the NCCLS guidelines using the broth microdilution method. Fifty microliters of the test compound solution in methanol were serially diluted by factor two with the culture medium (RPMI 1640 with L-glutamine, MOPS and without sodium bicarbonate, LONZA Verviers SPRL, Belgium). Then, the wells were inoculated with 50 µL of the test organism to give a final concentration of 6x10^3 CFU mL^-1. After incubation of the microtiter plates at 37°C (Aspergillus terreus) for 24 h, the MIC-values were read with a Nepheloscan Ascent 1.4 automatic plate reader (Lab systems, Vantaa, Finnland) as the lowest dilution of compound allowing no visible growth. The MIC for Fusarium oxysporum and Bacillus subtilis was determined by the agar diffusion method. Fifty microliters of each of the 12 serial twofold dilutions were filled in agar (malt extract agar from Roth, Karlsruhe, Germany; seeded with 0.5 mL of a pretested mycelial solution) holes of 9 mm in diameter. After incubation for 24 h the MIC was read as the lowest concentration giving an inhibition zone.

[2] = tested on: Aspergillus terreus; experiment: MIC determination, broth microdilution method (NCCLS guidelines); settings: A. terreus; for MIC: broth microdilution, 37°C, 24 h; for antimicrobial efficacy: result in words
Source text: as §1

[3] = tested on: Fusarium oxysporum; experiment: MIC determination, agar diffusion method; settings: 24 h
Source text: as §1, with “Fifty microliters of each of the 12 serial twofold dilutions were filled in agar (malt extract agar from Roth, Karlsruhe, Germany; seeded with 0.5 mL of a pretested mycelial solution) holes of 9 mm in diameter. After incubation for 24 h the MIC was read as the lowest concentration giving an inhibition zone.” left out

[4] = tested on: HUVEC; experiment: Antiproliferative assay (methylene blue staining); settings: Homo sapiens
Procedure: (§2) Antiproliferative and Cytotoxic Assays: Cells and culture conditions. Cells of HUVEC (ATCC CRL-1730), K-562 (DSM ACC 10) and HeLa (DSM ACC 57) were cultured in DMEM (CAMBREX 12-[…]), RPMI 1640 (CAMBREX 12-[…]) and RPMI 1640 (CAMBREX 12-[…]) respectively. All cells were grown in the appropriate cell culture medium supplemented with 10 mL L^-1 ultraglutamine 1 (Cambrex 17-[…]/U1), 500 μ[…] gentamicin sulfate (CAMBREX 17-518Z), and 10 % heat inactivated fetal bovine serum (PAA A15-144) at 37 °C in high density polyethylene flasks (NUNC 156340). Antiproliferative assay. The test substances were dissolved in DMSO before being diluted in DMEM. The adherent cells were harvested at the logarithmic growth phase after soft trypsinization, using 0.25 % trypsin in PBS containing 0.02 % EDTA (Biochrom KG L 2163). For each experiment, approximately 10.000 cells were seeded with 0.1 mL culture medium per well of the 96-well microplates (NUNC 167008). Method of evaluation. For estimating the influence of chemical compounds on cell proliferation of K-562, the numbers of viable cells present in multiwell plates were determined via CellTiter-Blue® assay. The indicator dye resazurin was used to measure the metabolic capacity of cells as an indicator of cell viability. […] The optical densities were measured at 660 nm in SUNRISE microplate reader (TECAN). […]

[5] = tested on: K-562; experiment: Antiproliferative assay (CellTiter-Blue); settings: Homo sapiens, K562; read-out: Gl50 (K-562)
Procedure: as §2

[6] = tested on: HeLa; experiment: Cytotoxic assay (methylene blue staining); settings: Homo sapiens, 72 hours incubation, read-out: Cytotoxicity CC50 (HeLa)
Procedure: Antiproliferative and Cytotoxic Assays: Cells and culture conditions. Cells of HUVEC (ATCC CRL-1730), K-562 (DSM ACC 10) and HeLa (DSM ACC 57) were cultured in DMEM (CAMBREX 12-614F), RPMI 1640 (CAMBREX 12-167F) and RPMI 1640 (CAMBREX 12-167F) respectively. All cells were grown in the appropriate cell culture medium supplemented with 10 mL L^-1 ultraglutamine 1 (Cambrex 17-605E/U1), 500 µL L^-1 gentamicin sulfate (CAMBREX 17-518Z), and 10 % heat inactivated fetal bovine serum (PAA A15-144) at 37 °C in high density polyethylene flasks (NUNC 156340).
Cytotoxic assay. For the cytotoxic assay, HeLa cells were pre-incubated for 48 hours without the test substances. The dilutions of the compounds were carried out carefully on the subconfluent monolayers of HeLa cells after the pre-incubation time. Cells were incubated with dilutions of the test substances for 72 hours at 37 °C in a humidified atmosphere and 5 % CO2.
Method of evaluation. For estimating the influence of chemical compounds on cell proliferation of K-562, the numbers of viable cells present in multiwell plates were determined via CellTiter-Blue® assay. The indicator dye resazurin was used to measure the metabolic capacity of cells as an indicator of cell viability. […] The optical densities were measured at 660 nm in SUNRISE microplate reader (TECAN). […]

[7] = Aspergillus terreus, read-out: MIC

Molecule	antimicrobial efficacy / antibacterial activity [1]	MIC [2] [µg/mL]	antimicrobial efficacy [2]	MIC [2, 7] [µg/mL]	MIC [3] [µg/mL]	GI50 [4] [nM]	GI50 [5] [nM]	CC50 [6] [nM]	MIC ([1]; Bacillus subtilis, 24 h) [µg/mL]	antibacterial activity ([1]; Bacillus subtilis, agar diffusion assays, 400 µg mL^-1)
botryosphaerone D [Compound 4]	antibacterial activity	–	–	–	–	–	–	–	–	–
C[C@@H]1[C@H](O)[C@@H](C)/C=C/C=C/CC/C=C/C=C/C=C/C=C/C(O[C@H]2O[C@H](C)[C@@H](O)[C@H](N)[C@@H]2O)CC2O[C@](O)(CC(O)C(O)CCC(O)CC(O)CC(O)CC(=O)O[C@H]1C)CC(O)C2C(=O)O (stereo partly shown) [nystatin, reference compound]	–	12.50 (≈ 13.5 µM)	–	–	–	–	–	–	–	–
Cc1cc(O)c(C)c2c1Oc1c(C=O)c(O)cc(C)c1C(=O)O2 [Compound 2, Botryosphaerone B]	active	–	active	15.6 (≈ 49.7 µM)	75 (≈ 239 µM)	70	3	36400	–	–
Cc1cc(O)cc2c1Oc1c(C=O)c(O)cc(C)c1C(=O)O2 [Compound 1, botryosphaerone A]	active	–	active	7.81 (≈ 26 µM)	57.5 (≈ 191 µM)	1670	840	97000	–	–
Cc1cc(O)c(C)c2c1Oc1c(CO)c(O)cc(C)c1C(=O)O2 [Compound 3, botryosphaerone C]	antibacterial activity	–	–	–	–	–	–	–	400 (≈ 1260 µM)	antibacterial activity
